In patent EP0311051A2, “Pyridylacetonitrile derivatives” (priority 1987, dated 1989):
Values after ≈ are worked out from the molar mass of the structure shown.

Columns and labels:
[1] = system: Botrytis cinerea; assay: Curative activity against gray mold of egg plant (detached leaf, spray after disease development); format: in vivo; conditions: 125 ppm a.i.
Protocol: A second developed leaf of egg plant (variety: Senryo #12) was placed in a petri dish and the mycelia of Botrytis cinerea grown on a PDA culture medium was inoculated after punching with a cork borer on the center of the leaf. The incubation was carried out at 25°C under humid condition for 24 hours. […] After air drying, the incubation was carried out at 25°C under humid condition. The diameter of the infected area was measured every day for 5 days after the application. Eight tests were carried out in each run.

[2] = system: Botrytis cinerea; assay: Activity persistence against gray mold of egg plant (spray 1 to 10 days before inoculation); format: in vivo; conditions: 250 ppm a.i.
[3] = system: Sclerotinia sclerotiorum; assay: Antifungal activity against Sclerotinia rot of kidney bean (sprayed cotyledons, mycelial inoculation); format: in vivo; conditions: 500 ppm a.i.; for Average infected area: 28°C, RH 100%, 4 days; for Controlled value: (1-S/S₀)×100, 4 days
Protocol: A 20 ml sample solution containing a predetermined concentration of the active compound was sprayed on 10 cotyledons of a kidney bean (variety: Masterpiece), which were dried in a room. After drying, the mycelia of Sclerotinia sclerotiorum grown on a PDA culture medium was inoculated after punching with a cork borer. The incubation was carried out at a temperature of 28°C and an RH of 100% for 4 days. The infected area was measured. Ten tests were carried out in each run. […]

[4] = system: Botrytis cinerea; assay: Antifungal activity against Botrytis cinerea by agar dilution method; format: cell-based; conditions: 120 h, concentration for 90% inhibition of mycelium growth, potato-agar medium, 25°C, 5 days, read-out: EC₉₀
Protocol: The culture medium thus obtained was allowed to stand in a room with constant temperature for predetermined days. Thereafter, the growth of mycelium of the microorganism was measured and the concentration for 90% inhibition of the growth (EC₉₀) was determined. Four tests were carried out in each run. The tests for microorganisms were carried out at a temperature of 25°C for 5 days.

[5] = system: rice blast fungus (Pyricularia oryzae); format: in vivo; conditions: 500 ppm a.i., 10 days after inoculation; for No. of leaves in each infection degree 0: index 0 = 0 lesions per leaf; for No. of leaves in each infection degree 1: index 1 = 1 lesion per leaf; for No. of leaves in each infection degree 2: index 2 = 2-5 lesions per leaf; for No. of leaves in each infection degree 3: index 3 = 6-10 lesions per leaf; for No. of leaves in each infection degree 4: index 4 = 11 or more lesions per leaf; for % of Infected leaves / Infection degree / No. of infected leaves: rice seedlings
[6] = 1 day between application and observation
[7] = 2 days between application and observation
[8] = 3 days between application and observation
[9] = 4 days between application and observation
[10] = 5 days between application and observation
[11] = 1 day between application and inoculation
[12] = 4 days between application and inoculation
[13] = 7 days between application and inoculation
[14] = 10 days between application and inoculation

Row | SMILES | Diameter of lesion [1, 6] [mm] | Diameter of lesion [1, 7] [mm] | Diameter of lesion [1, 8] [mm] | Diameter of lesion [1, 9] [mm] | Diameter of lesion [1, 10] [mm] | Infection degree [2, 11] | Infection degree [2, 12] | Infection degree [2, 13] | Infection degree [2, 14] | Average infected area [3] [%] | Controlled value [3] [%] | EC90 [4] [µg/mL] | No. of leaves in each infection degree 0 [5] | No. of leaves in each infection degree 1 [5] | No. of leaves in each infection degree 2 [5] | No. of leaves in each infection degree 3 [5] | No. of leaves in each infection degree 4 [5] | % of Infected leaves [5] [%] | Infection degree [5] | No. of infected leaves [5]
1 | CCCC(c1ccc(Cl)cc1Cl)C(C#N)n1ccnc1 (centres unmarked) [A, 3-(2,4-dichlorophenyl)-2-(1-imidazolyl)hexanenitrile] | 10 | 18 | 23 | 26 | 30 | 25.0 | 37.5 | 45.0 | 62.5 | 40 | 60 | 10.9 (≈ 35.4 µM) | – | – | – | – | – | – | – | –
2 | CCC(c1ccc(Cl)cc1Cl)C(C#N)c1cccnc1 (centres unmarked) [Compound 1, 3-(2,4-dichlorophenyl)-2-(3-pyridyl)pentanenitrile] | 10 | 15 | 17 | 19 | 19 | 10.0 | 12.0 | 17.5 | 17.5 | 5 | 95 | 1.4 (≈ 4.59 µM) | 145 | 48 | 13 | 0 | 0 | 29.6 | 9.0 | 206
3 | CCC(c1ccc(F)cc1Cl)C(C#N)c1cccnc1 (centres unmarked) [Compound 12, 3-(2-chloro-4-fluorophenyl)-2-(3-pyridyl)pentanenitrile] | 10 | 15 | 17 | 19 | 19 | 10.0 | 11.0 | 12.0 | 15.0 | 5 | 95 | 0.9 (≈ 3.12 µM) | – | – | – | – | – | – | – | –
4 | CC12CC1(C)C(=O)N(c1cc(Cl)cc(Cl)c1)C2=O (centres unmarked) [D, N-(3′,5′-dichlorophenyl)-1,2-dimethylcyclopropane-1,2-dicarboximide] | – | – | – | – | – | 12.0 | 15.5 | 20.5 | 25.0 | – | – | – | – | – | – | – | – | – | – | –
5 | COC(=O)NC(=S)Nc1ccccc1NC(=S)NC(=O)OC [E, dimethyl-4,4′-o-phenylene-bis(3-thioalfanate)] | 10 | 18 | 21 | 22 | 26 | – | – | – | – | 20 | 80 | – | – | – | – | – | – | – | – | –
6 | CC(C)OC(=O)C(C(=O)OC(C)C)=C1SCCS1 [F, diisopropyl-1,3,-dithiolan-2-ylidene malonate] | – | – | – | – | – | – | – | – | – | – | – | – | 128 | 45 | 12 | 0 | 0 | 30.8 | 9.3 | 185
7 | O=C1OCc2c(Cl)c(Cl)c(Cl)c(Cl)c21 [G, 4,5,6,7-tetrachlorophthalide] | – | – | – | – | – | – | – | – | – | – | – | – | 151 | 28 | 1 | 0 | 0 | 16.1 | 4.2 | 180
